Results published in patent US12540161B2, “Linkers” (BicycleTx Limited, priority 2020, dated 2026).
Several values for one entry are separate records, joined by “and”; a condition that tells them apart may be missing. Equal entries are not always repeated.

What was measured:
in vitro [1] = conditions: mouse, plasma
HT1080 xenograft = test: In vivo efficacy study in the HT1080 xenograft model in BALB/c nude mice (Example 6); conditions: for Tumor volume, day 0 / Tumor volume, day 2 / Tumor volume, day 4 / Tumor volume, day 6 / Tumor volume, day 9 / T/C (%) / TGI (%) / Tumor volume, day 11: iv, qw; for Tumor volume, day 0: day 0 after the start of treatment; for Tumor volume, day 0 / Tumor volume, day 2 / Tumor volume, day 4 / Tumor volume, day 6 / Tumor volume, day 9 / Tumor volume, day 11: mean ± SEM; for T/C (%) / TGI (%) / Tumor volume, day 11: day 11
Description: • Species: Mus Musculus • Strain: BALB/c nude • Age: 6-8 weeks • Sex: female • Body weight: 18-22 g • Number of animals: 35 mice plus spare • Animal supplier: Shanghai Lingchang Biotechnology Experimental Animal Co., LTD. Housing Condition • The mice were kept in individual ventilation cages at constant temperature and humidity with 5 animals in each cage. • Temperature: 20˜26° C. • Humidity 40-70%. • Cages: Made of polycarbonate. The size is 375 mm×215 mm×180 mm.
The HT1080 cells were maintained in EMEM medium supplemented with 10% heat inactivated fetal bovine serum at 37° C. in an atmosphere of 5% CO2 in air. The tumor cells were routinely sub-cultured twice weekly. The cells growing in an exponential growth phase were harvested and counted for tumor inoculation.
Each mouse was inoculated subcutaneously at the right flank with HT1080 tumor cells (5×10^6) in 0.2 ml of PBS for tumor development. Animals were randomized when the average tumor volume reached 320 mm^3 for efficacy study. The test article administration and the animal numbers in each group were shown in the experimental design table.
All the procedures related to animal handling, care and the treatment in the study were performed according to the guidelines approved by the Institutional Animal Care and Use Committee (IACUC) of WuXi AppTec, following the guidance of the Association for Assessment and Accreditation of Laboratory Animal Care (AAALAC). At the time of routine monitoring, the animals were checked for any effects of tumor growth and treatments on normal behavior such as mobility, food and water consumption (by observation only), body weight gain/loss, eye/hair matting and any other abnormal effect as stated in the protocol. Death and observed clinical signs were recorded on the basis of the numbers of animals within each subset.
The major endpoint was to see if the tumor growth could be delayed or mice could be cured. Tumor volume was measured three times weekly in two dimensions using a caliper, and the volume was expressed in mm^3 using the formula: V=0.5 a×b^2 where a and b are the long and short diameters of the tumor, respectively. The tumor size was then used for calculations of T/C value. The T/C value (in percent) is an indication of antitumor effectiveness; T and C are the mean volumes of the treated and control groups, respectively, on a given day.
TGI was calculated for each group using the formula: TGI (%)=[1−(Ti−T0)/(Vi−Vo)]×100; Ti is the average tumor volume of a treatment group on a given day, T0 is the average tumor volume of the treatment group on the day of treatment start, Vi is the average tumor volume of the vehicle control group on the same day with Ti, and V0 is the average tumor volume of the vehicle group on the day of treatment start.
Summary statistics, including mean and the standard error of the mean (SEM), were provided for the tumor volume of each group at each time point.
Statistical analysis of difference in tumor volume among the groups was conducted on the data obtained at the best therapeutic time point after the final dose.
A one-way ANOVA was performed to compare tumor volume among groups, and when a significant F-statistics (a ratio of treatment variance to the error variance) was obtained, comparisons between groups were carried out with Games-Howell test. A two-tailed T test was performed to compare tumor volume between two groups. All data were analyzed using GraphPad 5.0. P<0.05 was considered to be statistically significant.

in vivo = conditions: male, CD-1, mouse, plasma, intravenous
Description: Male CD-1 mice were dosed with each Bicycle Conjugate formulated in 25 mM histidine HCl, 10% sucrose pH 7 via tail vein injection. Serial bleeding (about 80 μL blood/time point) was performed via submadibular or saphenous vein at each time point. All blood samples were immediately transferred into prechilled microcentrifuge tubes containing 2 μL K2-EDTA (0.5M) as anti-coagulant and placed on wet ice. Blood samples were immediately processed for plasma by centrifugation at approximately 4° C., 3000 g. The precipitant including internal standard (350 μL) was immediately added into the 35 μL plasma sample, mixed well and centrifuged at 3220 g, 4° C. for 15 minutes. The supernatant was transferred into pre-labeled polypropylene microcentrifuge tubes, and then quick-frozen over dry ice. The samples were stored at 70° C. or below as needed until analysis. Supernatant samples were mixed with 50 μL water, vortexed well and centrifuged at 3220 g, 4° C. for 15 minutes. A sample of the supernatant was injected for LC-MS/MS analysis using an Acquity UPLC with AB Sciex 6500+ Triple Quad MS in positive ion mode to determine the concentrations of Bicycle Conjugate and released payload. Plasma concentration versus time data were analyzed by non-compartmental approaches using the Phoenix WinNonlin 6.3 software program. C0, Cl, Vdss, T1/2, AUC(0-inf), MRT(0-last), MRT(0-inf) nd graphs of plasma concentration versus time profile were reported.

in vitro [2] = conditions: rat, plasma, pH 7.4
Description: Pooled frozen plasma was thawed in a water bath at 37° C. Plasma was centrifuged at 4000 rpm for 5 min and the clots were removed if any. The pH will be adjusted to 7.4±0.1 if required. 1 mM stock solution was prepared with DMSO. Propantheline (positive control) was prepared by making a 100 μM working solution by diluting 5 μL of the stock solution (10 mM) with 495 μL ultra pure water. 100 μM working solutions of test compounds were made up by diluting 10 μL of the stock solution (1 mM) with 90 μL DMSO. 98 μL of blank plasma was spiked with 2 μL of dosing solution (100 μM) to achieve 2 μM of the final concentration in duplicate and samples were incubated at 37° C. in a water bath. At each time point (0, 1, 2, 4, 6 and 24 hr), 400 μL of 200 ng/mL tolbutamide and labetalol in 100% MeOH was added and mixed thoroughly to precipitate proteins. Sample plates were centrifuged at 4,000 rpm for 15 min. An aliquot of supernatant (150 μL) was transferred from each well before submitting for LC-MS/MS analysis.
The % remaining test compound after incubation in plasma was calculated using following equation: Remaining=100×(PAR at appointed incubation time/PAR at T0 time)
where PAR is the peak area ratio of analyte versus internal standard (IS).
The appointed incubation time points are T0 (0 hr), Tn (n=0, 1, 2, 4, 6, 24 hr). The half-life (T½) was calculated from a log linear plot of concentration versus time.
When the % remaining value at the maximal incubation time, which was 24 hr in this study, was higher than 75%, it is considered to be within the acceptable experimental variation.

in vitro [3] = conditions: rat, plasma
[4] = rat
Cathepsin B = Cathepsin B (Homo sapiens, UniProt P07858); test: Cathepsin B (CatB) cleavage assay; assay type: biochemical; conditions: BTCs
HT1080 cells = conditions: 1 mg/kg and 3 mg/kg
Description: For Cell-Derived Xenograft (CDX) models, mice (balb/c nude, female, 18-23 g at study start) were inoculated with HT1080 cells (5.0×10^6 cells/mouse in 0.2 ml PBS to the right flank). Animals were randomized when the average tumour volume reached the pre-designated start size. Group size is n=4. All studies included a vehicle-treated control.
Dosing was conducted by intravenous bolus. Tumor volume was measured in two dimensions using a caliper, and the volume was expressed in mm^3 using the formula: V=0.5 a×b^2 where a and b are the long and short diameters of the tumor, respectively.

in vitro [5] = conditions: human, plasma
in vitro [6] = conditions: cynomolgus monkey, plasma
[7] = 7 animals of group 5 and 6 treated with BCY10984 45 μM, average starting tumor size 1291 mm^3

With `CC[C@H](C)[C@@H]([C@@H](CC(=O)N1CCC[C@H]1[C@H](OC)[C@@H](C)C(=O)N[C@H](C)[C@@H](O)c1ccccc1)OC)N(C)C(=O)[C@@H](NC(=O)[C@H](C(C)C)N(C)C(=O)OCc1ccc(NC(=O)[C@H](CCCNC(N)=O)NC(=O)[C@H](Cc2cccc3ccccc23)NC(=O)[C@H](CCC(=O)O)NC(=O)Cn2cc(CCC(=O)NCCC(=O)N(C)CC(=O)N(C)CC(=O)N(C)CC(=O)N(C)CC(=O)N(C)CC(=O)N(C)CC(=O)N(C)CC(=O)N(C)CC(=O)N(C)CC(=O)N(C)CC(=O)N[C@@H](C)C(=O)N[C@H]3CN(C)Cc4cc5cc(c4)CN(C)C[C@@H](C(N)=O)NC(=O)[C@H](C(C)(C)C)NC(=O)[C@H](CC(=O)O)NC(=O)[C@H](Cc4ccc(O)cc4)NC(=O)[C@H](Cc4ccccc4)NC(=O)[C@H](CC(=O)O)NC(=O)[C@H](CCC(=O)O)NC(=O)[C@H](CSC5)NC(=O)[C@@H](C)NC(=O)[C@H](Cc4cccc5ccccc45)NC(=O)[C@H](CCC(=O)O)NC(=O)[C@H](CC(N)=O)NC(=O)[C@@H](C)NC3=O)nn2)cc1)C(C)C` [BCY10984, MMAE-PAB-(Cit-1Nal-Glu)-BCY3900] the fraction unbound (in vitro [1]) was 0.002, the “anti-tumor efficacy compared with BCY12951” value (HT1080 xenograft; 5 μM) was “comparable anti-tumor efficacy” and the anti-tumor activity (HT1080 xenograft; 5 μM, 15 μM and 45 μM qw) was “dose-dependent anti-tumor activity”. For the same compound, the “Tumor volume, day 0” value (HT1080 xenograft; 5 μM) was 320 ± 48 mm^3, the “Tumor volume, day 2” value (HT1080 xenograft; 5 μM) was 508 ± 49 mm^3 and the “Tumor volume, day 4” value (HT1080 xenograft; 5 μM) was 681 ± 64 mm^3. For the same compound, the “Tumor volume, day 6” value (HT1080 xenograft; 5 μM) was 750 ± 50 mm^3, the “Tumor volume, day 9” value (HT1080 xenograft; 5 μM) was 958 ± 53 mm^3 and the “T/C (%)” value (HT1080 xenograft; 5 μM) was 72.6%. The “TGI (%)” value (HT1080 xenograft; 5 μM) was 33.6%, the “Tumor volume, day 11” value (HT1080 xenograft; 5 μM) was 1257 mm^3 and 1257 ± 95 mm^3 and the “anti-tumor efficacy compared with BCY12951 at the same molar dosage” value (HT1080 xenograft; 15 μM and 45 μM) was “more potent efficacy”. The “Tumor volume, day 0” value (HT1080 xenograft; 15 μM) was 321 ± 43 mm^3, the “Tumor volume, day 2” value (HT1080 xenograft; 15 μM) was 519 ± 76 mm^3 and the “Tumor volume, day 4” value (HT1080 xenograft; 15 μM) was 428 ± 88 mm^3. The “Tumor volume, day 6” value (HT1080 xenograft; 15 μM) was 378 ± 128 mm^3, the “Tumor volume, day 9” value (HT1080 xenograft; 15 μM) was 304 ± 112 mm^3 and the “T/C (%)” value (HT1080 xenograft; 15 μM) was 16.6%. For the same compound, the “TGI (%)” value (HT1080 xenograft; 15 μM) was 102.3%, the “Tumor volume, day 11” value (HT1080 xenograft; 15 μM) was 288 mm^3 and 288 ± 126 mm^3 and the tumor eradication (HT1080 xenograft; 45 μM qw) was “eradicated the tumors completely on day 16”. The “Tumor volume, day 0” value (HT1080 xenograft; 45 μM) was 320 ± 32 mm^3, the “Tumor volume, day 2” value (HT1080 xenograft; 45 μM) was 489 ± 68 mm^3 and the “Tumor volume, day 4” value (HT1080 xenograft; 45 μM) was 285 ± 90 mm^3. The “Tumor volume, day 6” value (HT1080 xenograft; 45 μM) was 139 ± 46 mm^3, the “Tumor volume, day 9” value (HT1080 xenograft; 45 μM) was 29 ± 10 mm^3 and the “T/C (%)” value (HT1080 xenograft; 45 μM) was 0.9%. For the same compound, the “TGI (%)” value (HT1080 xenograft; 45 μM) was 121.6%, the “Tumor volume, day 11” value (HT1080 xenograft; 45 μM) was 15 mm^3 and 15 ± 6 mm^3 and the “tumor response after the first dosing” value (HT1080 xenograft; [7]) was “sudden tumor regression”. For the same compound, the “tumor response after the second dosing” value (HT1080 xenograft; [7]) was “all tumors were eradicated completely”, the “tumor growth (FIG. 17)” value (HT1080 xenograft; mice from Group 5 and 6 dosed with 45 μM BCY10984) was “potent inhibition of tumor growth” and the C0 (in vivo) was 112 µg/mL. The Vd (in vivo) was 0.09 L/kg, the clearance (in vivo) was 0.2 mL/min/kg and the half-life (in vivo) was 7.55 h. The half-life at 2 μM (in vitro [2]) was 53.8 h, the fraction unbound (in vitro [3]; PPB (% Unbound), rat (Table 9)) was 0.04 and the fraction unbound (in vitro [3]; Plasma protein binding (% Unbound) Rat) was 0.035. The AUC ratio [4] was 0.0000936, the “% Parent remaining after incubation with CatB, 0 h” value (Cathepsin B; 0 h) was 100% and the “% Parent remaining after incubation with CatB, 1 h” value (Cathepsin B; 1 h) was 94.498%. The “% Parent remaining after incubation with CatB, 2 h” value (Cathepsin B; 2 h) was 83.5%, the “% Parent remaining after incubation with CatB, 4 h” value (Cathepsin B; 4 h) was 39.2% and the “% Parent remaining after incubation with CatB, 6 h” value (Cathepsin B; 6 h) was 33.4%. For the same compound, the “% Parent remaining after incubation with CatB, 24 h” value (Cathepsin B; 24 h) was 32.5%, the half-life at 40 μM (Cathepsin B; read-out: CatB t1/2 (converted)) was 3.3 h and the “Body weights of the animals” value (HT1080 cells) was “not affected”. It also gave a fraction unbound (in vitro [5]) of 0.031 and a fraction unbound (in vitro [6]) of 0.092.
